# Measurements as given in patent US12281057B2 (VERTEX PHARMACEUTICALS INCORPORATED, priority 2017, dated 2025).
# Read-outs that look alike come from different tables or passages of the source.
# Target: truncated form of human NaV 1.8 with full channel activity (Homo sapiens, UniProt Q9Y5Y9)
# Assay: E-VIPR Assay Method A for detecting and measuring Nav inhibition (HEK cells, membrane potential FRET dyes, electrical stimulation)
# Format: cell-based
# Conditions: HEK cells expressing human NaV 1.8, HS (human serum) in compound loading buffer, 11 point dose response, top dose 3 μM
# How it was run: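 Read-out: FRET membrane-potential dye ratio (460/580 nm) before and during E-VIPR field stimulation at 10 Hz for 10 s, expressed as % activity between DMSO and positive controls. Cells: HEK with truncated human NaV1.8; compound preincubated 30 min at room temp, final DMSO 0.625%.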
# [1] = Table 20A, read-out: Nav 1.8 MedChem Optical Assay EVIPR Assay Method A HS IC50
# [2] = Table 20, read-out: Nav 1.8 MedChem Optical Assay EVIPR Assay Method A HS IC50
# truncated form of human NaV 1.8 with full channel activity, sequence (Q9Y5Y9 126-1722 limits assumed): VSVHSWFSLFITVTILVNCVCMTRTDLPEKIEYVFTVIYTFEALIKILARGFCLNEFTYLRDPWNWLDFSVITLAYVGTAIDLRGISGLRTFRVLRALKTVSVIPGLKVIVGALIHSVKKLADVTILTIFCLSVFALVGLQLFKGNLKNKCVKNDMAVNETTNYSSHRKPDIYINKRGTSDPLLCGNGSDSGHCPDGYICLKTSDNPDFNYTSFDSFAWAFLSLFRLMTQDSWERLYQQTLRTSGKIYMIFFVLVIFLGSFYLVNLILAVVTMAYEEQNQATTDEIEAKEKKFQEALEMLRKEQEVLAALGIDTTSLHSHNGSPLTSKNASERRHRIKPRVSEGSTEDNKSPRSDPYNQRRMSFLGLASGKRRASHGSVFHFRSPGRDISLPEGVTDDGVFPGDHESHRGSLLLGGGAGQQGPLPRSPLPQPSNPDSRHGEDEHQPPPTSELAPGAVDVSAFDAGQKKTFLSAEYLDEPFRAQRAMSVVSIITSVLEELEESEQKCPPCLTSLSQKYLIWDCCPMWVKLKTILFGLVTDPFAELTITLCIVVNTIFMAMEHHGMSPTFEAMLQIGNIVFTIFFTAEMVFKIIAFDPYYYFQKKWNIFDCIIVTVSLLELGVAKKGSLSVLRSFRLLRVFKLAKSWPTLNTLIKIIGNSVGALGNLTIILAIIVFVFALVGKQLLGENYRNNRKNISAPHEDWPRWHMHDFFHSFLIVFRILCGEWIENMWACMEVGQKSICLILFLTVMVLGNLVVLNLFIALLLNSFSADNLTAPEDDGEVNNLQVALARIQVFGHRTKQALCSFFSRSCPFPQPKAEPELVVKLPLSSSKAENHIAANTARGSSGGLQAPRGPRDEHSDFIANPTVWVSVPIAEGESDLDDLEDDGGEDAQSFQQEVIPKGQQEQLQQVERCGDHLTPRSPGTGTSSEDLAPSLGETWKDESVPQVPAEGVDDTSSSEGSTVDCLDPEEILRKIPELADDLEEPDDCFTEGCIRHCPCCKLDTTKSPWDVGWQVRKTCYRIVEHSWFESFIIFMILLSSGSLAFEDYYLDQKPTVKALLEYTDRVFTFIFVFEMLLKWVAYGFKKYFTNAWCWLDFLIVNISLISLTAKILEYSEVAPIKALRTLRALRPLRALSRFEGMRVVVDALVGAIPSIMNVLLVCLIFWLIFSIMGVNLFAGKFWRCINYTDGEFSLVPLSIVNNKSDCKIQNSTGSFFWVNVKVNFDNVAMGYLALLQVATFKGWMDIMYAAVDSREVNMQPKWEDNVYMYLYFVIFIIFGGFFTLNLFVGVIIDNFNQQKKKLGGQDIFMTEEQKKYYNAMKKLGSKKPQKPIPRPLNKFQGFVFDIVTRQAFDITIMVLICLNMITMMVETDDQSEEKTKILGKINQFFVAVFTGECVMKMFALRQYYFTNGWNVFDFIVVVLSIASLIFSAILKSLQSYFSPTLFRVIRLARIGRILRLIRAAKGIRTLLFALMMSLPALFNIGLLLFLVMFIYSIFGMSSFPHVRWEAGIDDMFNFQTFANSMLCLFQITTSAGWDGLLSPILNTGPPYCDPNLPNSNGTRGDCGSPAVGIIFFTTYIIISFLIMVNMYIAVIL
IC50 [1] [nM],IC50 [2] [nM],Structure (SMILES)
410,,"COc1cc(F)ccc1Oc1cc(Cl)cc(Cl)c1C(=O)Nc1ccc(C(N)=O)nc1 [Compound 182, 5-[[2,4-Dichloro-6-(4-fluoro-2-methoxy-phenoxy)benzoyl]amino]pyridine-2-carboxamide]"
27,,"COc1cc(OC(F)(F)F)ccc1Oc1ccc(C(F)(F)F)c(F)c1C(=O)Nc1ccnc(C(N)=O)n1 [Compound 207, 4-[[2-Fluoro-6-[2-methoxy-4-(trifluoromethoxy)phenoxy]-3-(trifluoromethyl)benzoyl]amino]pyrimidine-2-carboxamide]"
200,,"COc1cc(OC(F)(F)F)ccc1Oc1cc([C@H]2C[C@@H]2C)ncc1C(=O)Nc1ccnc(C(N)=O)c1 (single isomer, unassigned) [Compound 111]"
560,,"Cc1cc(F)ccc1Oc1cccc(C(F)(F)F)c1C(=O)Nc1ccc(F)c(C(N)=O)c1 [Compound 41, N-(3-Carbamoyl-4-fluoro-phenyl)-2-(4-fluoro-2-methyl-phenoxy)-6-(trifluoromethyl)benzamide]"
24,,"NC(=O)c1cc(NC(=O)c2c(Oc3ccc(OC(F)(F)F)cc3)ccc(OC(F)(F)F)c2F)ccn1 [Compound 243, 4-[[2-fluoro-3-(trifluoromethoxy)-6-[4-(trifluoromethoxy)phenoxy]benzoyl]amino]pyridine-2-carboxamide]"
140,,"COc1c(C(F)(F)F)ccc(Oc2ccc(OC(F)(F)F)cc2)c1C(=O)Nc1ccc(C(N)=O)c(F)c1 [Compound 132, N-(4-Carbamoyl-3-fluoro-phenyl)-2-methoxy-6-[4-(trifluoromethoxy)phenoxy]-3-(trifluoromethyl)benzamide]"
44,,"Cc1cnc(C(N)=O)cc1NC(=O)c1c(Oc2ccc(OC(F)(F)F)cc2)ccc(C(F)(F)F)c1F [Compound 242, 4-[[2-fluoro-6-[4-(trifluoromethoxy)phenoxy]-3-(trifluoromethyl)benzoyl]amino]-5-methyl-pyridine-2-carboxamide]"
10,,"COc1cc(OC(F)(F)F)ccc1Oc1cnc(C(F)(F)F)c(F)c1C(=O)Nc1cc(C(N)=O)ncc1C [Compound 143, N-(2-Carbamoyl-5-methyl-4-pyridyl)-3-fluoro-5-[2-methoxy-4-(trifluoromethoxy)phenoxy]-2-(trifluoromethyl)pyridine-4-carboxamide]"
1400,,"COc1cc(OC(F)(F)F)ccc1Oc1cncc(OC)c1C(=O)Nc1ccc(F)c(C(N)=O)c1 [Compound 138, N-(3-Carbamoyl-4-fluoro-phenyl)-3-methoxy-5-[2-methoxy-4-(trifluoromethoxy)phenoxy]pyridine-4-carboxamide]"
45,,"[2H]C([2H])([2H])Oc1c(Oc2ccc(C(F)F)c(F)c2C(=O)Nc2ccc(C(N)=O)nc2)ccc(OC(F)(F)F)c1F [Compound 236, 5-[[3-(Difluoromethyl)-2-fluoro-6-[3-fluoro-2-(trideuteriomethoxy)-4-(trifluoromethoxy)phenoxy]benzoyl]amino]pyridine-2-carboxamide]"
76,,"COc1cc(F)ccc1Oc1cc(Cl)cc(Cl)c1C(=O)Nc1ccnc(C(N)=O)c1 [Compound 178, 4-[[2,4-Dichloro-6-(4-fluoro-2-methoxy-phenoxy)benzoyl]amino]pyridine-2-carboxamide]"
5,,"COc1cc(OC(F)(F)F)ccc1Oc1cnc(C(F)(F)F)c(OC)c1C(=O)Nc1ccnc(C(N)=O)c1 [Compound 166, N-(2-Carbamoyl-4-pyridyl)-3-methoxy-5-[2-methoxy-4-(trifluoromethoxy)phenoxy]-2-(trifluoromethyl)pyridine-4-carboxamide]"
4,,[2H]C([2H])([2H])Oc1c(Oc2cc(Cl)c(C(F)F)c(OC)c2C(=O)Nc2ccnc(C(N)=O)c2)ccc(OC(F)(F)F)c1F [Compound 233]
127,,"NC(=O)c1cc(NC(=O)c2cc(C(F)(F)C(F)(F)F)ccc2Oc2ccc(OC(F)(F)F)cc2)ccn1 [Compound 80, 4-[[5-(1,1,2,2,2-pentafluoroethyl)-2-[4-(trifluoromethoxy)phenoxy]benzoyl]amino]pyridine-2-carboxamide]"
103,,"NC(=O)c1cc(NC(=O)c2c(Oc3ccc(OC(F)(F)F)c(O)c3)ccc(C(F)(F)F)c2F)ccc1F [Compound 141, N-(3-Carbamoyl-4-fluoro-phenyl)-2-fluoro-6-[3-hydroxy-4-(trifluoromethoxy)phenoxy]-3-(trifluoromethyl)benzamide]"
39,,"[2H]C([2H])([2H])Oc1cc(OC(F)(F)F)ccc1Oc1ccc(C(F)(F)F)c(OC)c1C(=O)Nc1cc(C(N)=O)ncc1C [Compound 146, 4-[[2-Methoxy-6-[2-(trideuteriomethoxy)-4-(trifluoromethoxy)phenoxy]-3-(trifluoromethyl)benzoyl]amino]-5-methyl-pyridine-2-carboxamide]"

IC50 [1] [nM],IC50 [2] [nM],Structure (SMILES)
1,,"COc1cc(OC(F)(F)F)ccc1Oc1cnc(C(F)(F)F)c(F)c1C(=O)Nc1ccc(F)c(C(N)=O)c1 [Compound 45, N-(3-carbamoyl-4-fluoro-phenyl)-3-fluoro-5-[2-methoxy-4-(trifluoromethoxy)phenoxy]-2-(trifluoromethyl)pyridine-4-carboxamide]"
150,,"NC(=O)c1cc(NC(=O)c2cc(F)c(C(F)(F)F)cc2Oc2ccc(OC(F)(F)F)cc2)ccc1F [Compound 77, N-(3-Carbamoyl-4-fluoro-phenyl)-5-fluoro-2-[4-(trifluoromethoxy)phenoxy]-4-(trifluoromethyl)benzamide]"
5,,"[2H]C([2H])([2H])Oc1cc(OC(F)(F)F)ccc1Oc1ccc(C(F)(F)F)c(F)c1C(=O)Nc1cc(C(N)=O)ncc1C [Compound 137, 4-[[2-Fluoro-6-[2-(trideuteriomethoxy)-4-(trifluoromethoxy)phenoxy]-3-(trifluoromethyl)benzoyl]amino]-5-methyl-pyridine-2-carboxamide]"
113,,"COc1cc(OC(F)(F)F)ccc1Oc1ccc(C(F)(F)F)c(F)c1C(=O)Nc1cccc(C(N)=O)n1 [Compound 169, 6-[[2-Fluoro-6-[2-methoxy-4-(trifluoromethoxy)phenoxy]-3-(trifluoromethyl)benzoyl]amino]pyridine-2-carboxamide]"
40,,"NC(=O)c1cc(NC(=O)c2c(Oc3ccc(OC(F)(F)F)cc3)ccc(C3CC3)c2F)ccc1F [Compound 71, N-(3-Carbamoyl-4-fluoro-phenyl)-3-cyclopropyl-2-fluoro-6-[4-(trifluoromethoxy)phenoxy]benzamide]"
,3,"NC(=O)c1cc(NC(=O)c2c(Oc3ccc(OC(F)(F)F)cc3Cl)ccc(C(F)(F)F)c2F)ccc1F [Compound 9, N-(3-carbamoyl-4-fluoro-phenyl)-6-[2-chloro-4-(trifluoromethoxy)phenoxy]-2-fluoro-3-(trifluoromethyl)benzamide]"
63,,"COc1cc(OC(F)(F)F)ccc1Oc1cc(C(C)(C)C)ncc1C(=O)Nc1ccnc(C(N)=O)c1 [Compound 93, 6-tert-Butyl-N-(2-carbamoyl-4-pyridyl)-4-[2-methoxy-4-(trifluoromethoxy)phenoxy]pyridine-3-carboxamide]"
11,,"COc1ccc(Oc2ccc(C(F)(F)F)c(F)c2C(=O)Nc2ccnc(C(N)=O)c2)c(OC)c1 [Compound 195, 4-[[6-(2,4-Dimethoxyphenoxy)-2-fluoro-3-(trifluoromethyl)benzoyl]amino]pyridine-2-carboxamide]"
1000,,"COc1cc(F)ccc1Oc1ccc(OC(F)(F)F)cc1C(=O)Nc1ccnc(C(N)=O)c1 [Compound 157, 4-[[2-(4-Fluoro-2-methoxy-phenoxy)-5-(trifluoromethoxy)benzoyl]amino]pyridine-2-carboxamide]"
22,,"COc1cc(OC(F)(F)F)ccc1Oc1cc(C2(C)CC2)ncc1C(=O)Nc1ccc(F)c(C(N)=O)c1 [Compound 102, N-(3-Carbamoyl-4-fluoro-phenyl)-4-[2-methoxy-4-(trifluoromethoxy)phenoxy]-6-(1-methylcyclopropyl)pyridine-3-carboxamide]"
21,,"COc1cc(OC(F)(F)F)ccc1Oc1cnc(C(F)(F)F)c(F)c1C(=O)Nc1ccc(C(N)=O)nc1 [Compound 194, N-(6-carbamoyl-3-pyridyl)-3-fluoro-5-[2-methoxy-4-(trifluoromethoxy)phenoxy]-2-(trifluoromethyl)pyridine-4-carboxamide]"
83,,"COc1cc(OC(F)(F)F)ccc1Oc1cc(C(F)(F)F)ncc1C(=O)Nc1ccnc(C(N)=O)c1 [Compound 34, N-(2-Carbamoyl-4-pyridyl)-4-[2-methoxy-4-(trifluoromethoxy)phenoxy]-6-(trifluoromethyl)pyridine-3-carboxamide]"
108,,"COc1cc(OC(F)(F)F)ccc1Oc1cc(C(F)(F)F)ccc1C(=O)Nc1cccc(C(N)=O)c1 [Compound 28, N-(3-Carbamoylphenyl)-2-[2-methoxy-4-(trifluoromethoxy)phenoxy]-4-(trifluoromethyl)benzamide]"
,4,"COc1cc(OC(F)(F)F)ccc1Oc1cnc(C(F)(F)F)c(F)c1C(=O)Nc1ccnc(C(N)=O)c1 [Compound 12, N-(2-Carbamoyl-4-pyridyl)-3-fluoro-5-[2-methoxy-4-(trifluoromethoxy)phenoxy]-2-(trifluoromethyl)pyridine-4-carboxamide]"
140,,"NC(=O)c1cc(NC(=O)c2c(Oc3ccc(OC(F)F)cc3F)ccc(C(F)(F)F)c2F)ccn1 [Compound 136, 4-[[6-[4-(Difluoromethoxy)-2-fluoro-phenoxy]-2-fluoro-3-(trifluoromethyl)benzoyl]amino]pyridine-2-carboxamide]"
,4,"NC(=O)c1cc(NC(=O)c2c(Oc3ccc(OC(F)(F)F)cc3OC(F)F)ccc(C(F)(F)F)c2F)ccn1 [Compound 13, 4-[[6-[2-(difluoromethoxy)-4-(trifluoromethoxy)phenoxy]-2-fluoro-3-(trifluoromethyl)benzoyl]amino]pyridine-2-carboxamide]"
